This note sets out measurements from PMC5776727 (Bioorganic & medicinal chemistry letters, 2015).

The target in this assay is CXCR4 (Homo sapiens, UniProt P61073). The assay is described as follows: inhibition of CXCL12. Type of assay: cell-based. The note with it: read-out: SDF-1 Ca2+ Flux CEM-1 IC50; SDF-1 induced calcium release; duplicate. In general terms: Calcium flux is commonly read through the fluorescence of an indicator in the cells.
Chain of CXCR4 (P61073 whole entry): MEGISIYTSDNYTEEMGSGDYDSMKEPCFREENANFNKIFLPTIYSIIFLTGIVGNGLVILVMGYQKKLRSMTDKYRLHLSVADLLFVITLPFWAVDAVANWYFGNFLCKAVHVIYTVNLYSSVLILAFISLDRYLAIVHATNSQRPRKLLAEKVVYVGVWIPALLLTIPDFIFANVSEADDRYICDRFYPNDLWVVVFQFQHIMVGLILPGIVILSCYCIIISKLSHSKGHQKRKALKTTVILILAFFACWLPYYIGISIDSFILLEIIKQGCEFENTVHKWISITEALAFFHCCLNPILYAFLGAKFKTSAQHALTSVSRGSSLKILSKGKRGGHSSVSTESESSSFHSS

As to `NCCCCN(C[C@H]1CN(C(=O)Nc2ccccc2)CCN1)[C@H]1CCCc2cccnc21` [Compound 57a], the IC50 (usually the point on the concentration scale where inhibition reaches its midpoint) is 21 µM.
